Test results published in patent publication US20050192240A1, “Methods and compositions relating to expression factors” (priority 2004, published 2005).
Converted amounts (≈) assume the structure as drawn. Where two headings read alike, the source gives them in different places.

Legend:
Format in all cases: cell-based
C. albicans [1] = experiment: Agar dilution assay of C. albicans strains; settings: Candt80/Candt80 mutant versus wild-type or rescued strain; fluconazole 25 μg/ml, voriconazole 1 μg/ml
Protocol: The cdr1/cdr1 homozygous mutant was constructed according to Sanglard et al., Antimicrob. Agents Chemother. 40:2300-2305, 1996. Fluconazole and voriconazole were prepared to a final concentration of 25 μg/ml and 1 μg/ml, respectively in dimethylsulfoxide (DMSO). C. albicans cells grown on media containing DMSO and in the absence of drug, was used as the control. C. albicans cells were diluted to an OD600 of 2 (corresponding to approximately 2×10^7cells/ml) and 0.5 μl was spotted onto plates containing either fluconazole (25 μg/ml) or voriconazole (1 μg/ml) using a replica device (Oxoid Inc., Canada). Cells were also prepared and spotted in 10-fold serial dilutions (10^4 to 10 cells).

S. cerevisiae = experiment: Etest antifungal strip susceptibility of S. cerevisiae strains; settings: for MIC: Saccharomyces cerevisiae, SD plate, 30° C., read-out: minimum inhibitory concentration (MIC)
Text: The effect on drug susceptibility by overexpression of CaNdt80p and its S. cerevisiae homolog, Ndt80p, were compared using the antifungal strips, Etest (AB BIODISK, Solna, Sweden) (Arendrup et al., J. Antimicrob. Chemother. 47:521-526, 2001; Chang et al., J. Clin. Microbiol 39:1328-1333, 2001). S. cerevisiae Ndt80p was identified as a meiosis specific transcription factor (Chu et al., Science 282:699-705, 1998; Chu and Herskowitz, Mol. Cell 1:685-696, 1998). Ndt80p is autoregulated and activates its targets through a mid-sporulation element consensus site (MSE: gNCRCAAAA/T) in the target (Chu and Herskowitz, Mol. Cell 1:685-696, 1998). Expression of the NDT80 gene is repressed during vegetative growth (Xu et al., Mol. Cell Biol. 15:6572-6581, 1995; Pak and Segall, Mol. Cell Biol. 22:6417-6429, 2002).
First, homogenized isolated colonies from an overnight SD plate were transferred into a 0.85% NaCl solution to achieve a suspension containing 5×10^6 cells/ml. A sterile swab was dipped into the inoculum suspension and the entire agar surface of an SD plate was streaked evenly with the swab. The plates were allowed to dry until all excess moisture was completely absorbed, and the Etest strips (AB BIODISK, Solna, Sweden) were applied onto each plate. The plates were incubated at 30° C. and were photographed after 3 days of growth. These Etest strips tested the susceptibility to ketoconazole (0.002-32 μg/ml) (KE) and fluconazole (0.016-256 μg/ml) (FL). Susceptibility is indicated by a clear ring around the antifungal strips where growth has been inhibited. Degree of susceptibility is indicated by the size of the ring. The strains tested were the NDT80/NDT80 wild type S. cerevisiae strain transformed with the control vectors 2μ-URA3and CEN-LEU2 (Christianson et al., Gene 110:119-122, 1992; Sikorski and Hieter, Genetics 122:19-27, 1989) (designated as strain SLO16) (“NDT80/NDT80” lane in FIG. 6); a ndt80/ndt80 homozygous mutant transformed with the control 2μ-URA3 vector (designated as strain SLO14) (“ndt80/ndt80 2μ vector” lane in FIG. 6); a ndt80/ndt80 homozygous mutant transformed with the 2μ-URA3-NDT80 plasmid, LOB46 (designated as strain SLO13) (“ndt80/ndt80 2μ NDT80” lane in FIG. 6); and a ndt80/ndt80 homozygous mutant transformed with the 2μ-URA3-CaNDT80 plasmid, LOB44 (designated as strain SLO15) (“ndt80/ndt80 2μ CaNDT80” lane in FIG. 6).
In a separate experiment, a strain harboring the LOB44 plasmid without the NDT80 gene was tested in the Etest.

C. albicans [2] = experiment: Etest antifungal strip susceptibility of C. albicans strains
Protocol: The three C. albicans strains SC5314 (wild type), YLO133 (homozygous mutant Candt80/Candt80) and YLO137 (rescued strain of YLO133 with one copy of CaNDT80), were also tested for susceptibility to five different drugs using the Etest. Five different antifungal strips (AB BIODISK, Solna, Sweden) were used: amphotericin B at 0.002-32 μg/ml (AP), 5-fluorocytosine at 0.002-32 μg/ml (FC), fluconazole at 0.016-256 μg/ml (FL), itraconazole at 0.002-32 μg/ml (IT) and ketoconazole at 0.002-32 μg/ml (KE). Each strain was grown overnight on an SD plate and homogenized colonies from the plate were transferred into 0.85% NaCl to achieve a suspension of about 5×10^6 cells/ml. A sterile swab was dipped into the inoculum suspension and the entire agar surface of a SD plate was evenly streaked. Each plate was dried until excess moisture was completely absorbed and each of the five different Etest strips were applied onto each plate. The plates were incubated at 30° C. and were photographed after 2 days of growth. Susceptibility to a drug is indicated by a clear inhibition zone around the antifungal strip where growth has been inhibited. Degree of susceptibility is indicated by the size of the ring.

C. albicans [3] = experiment: RT-PCR of CDR1 and CaNDT80 mRNA with or without miconazole; settings: miconazole 100 μg/ml, one hour, 30° C.; strains SC5314, YLO133, YLO137
Protocol: C. albicans strains SC5314 (wild type), YLO133 (homozygous mutant Candt80/Candt80) and YLO137 (rescued strain of YLO133 with one copy of CaNDT80), were grown in the presence or absence of the antifungal agent, miconazole (Sigma) at 100 μg/ml for one hour at 30° C. The level of mRNAs of TEF3 (control), CDR1, and CaNDT80, was measured by reverse transcriptase polymerase chain reaction (RT-PCR). […] Lanes 2-4 and 11-13 represent mRNA from YLO133 (homozygous mutant), lanes 5-7 and 14-16 represent mRNA from YLO137 (rescued mutant), and lanes 8-10 and 17-19 represent mRNA from the wild-type strain, SC5314. Lanes 2, 5, 8, 11, 14, and 17 were tested for TEF3 mRNA (internal control); lanes 3, 6, 9, 12, 15, and 18, were tested for CDR1 mRNA; and lanes 4, 7, 10, 13, 16, and 19 were tested for CaNDT80 mRNA. As expected, no CaNDT80 mRNA was detected in the homozygous mutant (FIG. 9, lanes […] and 13). In contrast, CaNDT80 mRNA was detected in the wild-type strain during vegetative growth (FIG. 9, lanes 10 and 19), unlike its homolog NDT80 in S. cerevisiae.

[4] = S. cerevisiae overexpressing CaNDT80 (LOB44 plasmid)
[5] = S. cerevisiae transformed with control vector
[6] = homozygous mutant Candt80/Candt80 (YLO133) compared with wild type SC5314, 2 days

SMILES | susceptibility (growth on drug plates) (C. albicans [1]) | MIC (S. cerevisiae; [4]) [µg/mL] | MIC (S. cerevisiae; [5]) [µg/mL] | drug susceptibility (inhibition zone) (C. albicans [2]; [6]) | also measured
OC(Cn1cncn1)(Cn1cncn1)c1ccc(F)cc1F [fluconazole] | more susceptible | 64 (≈ 209 µM) | 24 (≈ 78.4 µM) | increased susceptibility | drug susceptibility (inhibition zone) (C. albicans [2]; rescued strain YLO137 (one copy of CaNDT80) compared with wild type SC5314, 2 days): more susceptible
Nc1nc(=O)[nH]cc1F [5-fluorocytosine] | – | – | – | increased susceptibility | –
C[C@@H](c1ncncc1F)[C@](O)(Cn1cncn1)c1ccc(F)cc1F [voriconazole] | more susceptible | – | – | – | –
CC(=O)N1CCN(c2ccc(OCC3COC(Cn4ccnc4)(c4ccc(Cl)cc4Cl)O3)cc2)CC1 (stereo not drawn) [ketoconazole] | – | ≥ 32 | 6 (≈ 11.3 µM) | increased susceptibility | drug susceptibility (inhibition zone) (S. cerevisiae; ndt80/ndt80 2μ CaNDT80 compared with NDT80/NDT80 S. cerevisiae, 3 days): decreased
Clc1ccc(COC(Cn2ccnc2)c2ccc(Cl)cc2Cl)c(Cl)c1 (stereo not drawn) [miconazole] | – | – | – | – | patterns of TEF3, CDR1 and CaNDT80 mRNA with versus without treatment (C. albicans [3]): comparable
